Results as given in patent US11110139B2, “Application of anthocyanin extract in preparing pharmaceutical composition for preventing and treating cardiac toxicity induced by anthracyclines and pharmaceutical composition” (Northwest Institute of Plateau Biology, Chinese Academy of …, priority 2017, dated 2021).

What was measured:
[1] = test system: rat cardiomyocyte cell line H9c2; format: cell-based; details: 24 h, 20 μM
Experimental: (§1) A rat cardiomyocyte cell line H9c2: a DMEM culture medium (containing 10% new-born calf serum, 2 mM glutamate and 1% streptomycin/penicillin) was employed to culture, and a culture condition was an aseptic environment at 37° C. and 5% C02. The culture medium was replaced once every 2-3 d, and when cells were cultured for 24 h and 80% were aggregated, a medicament treatment was performed. A control group, a model group (containing 20 μM DOX), and a nitraria anthocyanin extract experimental group (containing 20 μM DOX and 5-500 μg/mL nitraria anthocyanin extract) were respectively provided, and after they were treated for 24 h, a change in cardiomyocyte apoptosis was detected by a flow cytometer according to operating instructions of a kit by employing an FITC-Annexin V/propidium iodide (PI) fluorescence double staining method.

[2] = test system: rat cardiomyocyte cell line H9c2; format: cell-based; details: 24 h, 20 μM; remark: listed apart in the source
Experimental: as §1, with “CO2.” for “C02.”, “provided,” for “provided, and”, “an extracellular fluid was collected, and LDH and CK levels” for “a change”, “the extracellular fluid were” for “cardiomyocyte apoptosis was”, “by” for “by a flow cytometer according to operating instructions of a kit by”, “LDH and CK array kits.” for “an FITC-Annexin V/propidium iodide (PI) fluorescence double staining method.”

[3] = test system: rat cardiomyocyte cell line H9c2; experiment: Aggregated level of cardiomyocyte ROS (DCFH-DA, flow cytometer); format: cell-based; details: H9c2, 20 μM DOX alone, 24 h
Experimental: A rat cardiomyocyte cell line H9c2: a DMEM culture medium (containing 10% new-born calf serum, 2 mM glutamate and 1% streptomycin/penicillin) was employed to culture, and a culture condition was an aseptic environment at 37° C. and 5% CO2. The culture medium was replaced once every 2-3 d, and when cells were cultured for 24 h and 80% were aggregated, a medicament treatment was performed. A control group, a model group (containing 20 μM DOX), and a nitraria anthocyanin extract experimental group (containing 20 μM DOX and 5-500 μg/mL nitraria anthocyanin extract) were respectively provided, and after they were treated for 24 h, 2′, 7′-dichlorodihydro-fluorescein diacetate (DCFH-DA, 20 μM) was added to incubate for 20 min at 37° C., and a flow cytometer was employed to detect an aggregated level of cardiomyocyte ROS. According to experimental results (as shown in FIG. 8), after the 20 μM DOX is treated for 24 h, the aggregated level of the cardiomyocyte ROS is increased to 3.5 times of a normal cell; and after the DOX and the 5-500 μg/mL nitraria anthocyanin extract are co-treated for 24 h, the aggregated level of the cardiomyocyte ROS only is 2.16-3.29 times of the normal cell.

[4] = test system: rat cardiomyocyte cell line H9c2; format: cell-based; details: 24 h, 20 μM; remark: listed apart in the source
Experimental: as §1, with “CO2.” for “C02.”, “aggregated, was transferred to a 96-well plate with a cell density being 1×10^5/well; after the cells were continued to culture for 24 h,” for “aggregated,”, “cell viability” for “change in cardiomyocyte apoptosis”, “by” for “by a flow cytometer according to operating instructions of a kit by employing”, “MTT” for “FITC-Annexin V/propidium iodide (PI) fluorescence double staining”

[5] = test system: bcl-2, bax, caspase-3 and caspase-9 protein expression in H9c2; experiment: Western blot of bcl-2, bax, caspase-3 and caspase-9 in H9c2; format: cell-based, rat; details: H9c2, 20 μM DOX alone, 24 h
Experimental: A rat cardiomyocyte cell line H9c2: a DMEM culture medium (containing 10% new-born calf serum, 2 mM glutamate and 1% streptomycin/penicillin) was employed to culture, and a culture condition was an aseptic environment at 37° C. and 5% CO2. The culture medium was replaced once every 2-3 d, and when cells were cultured for 24 h and 80% were aggregated, a medicament treatment was performed. A control group, a model group (containing 20 μM DOX), and a nitraria anthocyanin extract experimental group (containing 20 μM DOX and 5-500 μg/mL nitraria anthocyanin extract) were respectively provided, and after they were treated for 24 h, the cells were scrapped, and were collected by centrifugation; and after being cleaned by a phosphate buffer, the cells were resuspended in a lysis buffer. After cell debrises were removed by the centrifugation, a supernatant was collected and a soluble protein concentration was determined using a BCA protein concentration assay kit. A protein solute, after being separated by 12% SDS-PAGE electrophoresis, was transferred to a PVDF membrane and thereafter was labeled by bcl-2, bax, caspase-3 and caspase-9 antibodies. An optical density of a band was determined by Quantity One software (v4.62, American Bio-Rad Company). And αβ-tubulin was taken as a protein sample loading internal reference substance.

COc1cccc2c1C(=O)c1c(O)c3c(c(O)c1C2=O)C[C@@](O)(C(=O)CO)C[C@@H]3O[C@H]1C[C@H](N)[C@H](O)[C@H](C)O1 [DOX, doxorubicin]
number of FITC-Annexin V positive cells [1]: 1.49%
CK level in the extracellular fluid, times of a normal cell [2]: 2.87 times
LDH level in the extracellular fluid, times of a normal cell [2]: 2.65 times
aggregated level of cardiomyocyte ROS, times of a normal cell [3]: 3.5 times
cell viability, of a normal cell [4]: 62.12%
Bax/Bcl-2 protein expression ratio versus normal cell [5]: increased to two times of a normal cell
bax protein expression [5]: significantly increased
bcl-2 protein expression [5]: significantly reduced
protein expression of cut and activated caspase-3 [5]: significantly increased
protein expression of cut and activated caspase-9 [5]: significantly increased
